What all share (assay type): cell-based
Assay [1] relates to diverse panel of cancer cell lines. The assay is described as follows: Cell viability in a diverse panel of cancer cell lines. The note with it: HeLa, M233, U205, CCRF-CEM, NCI-H460; MCF7 excepted; read-out: cell viability IC50 across most cancer cell lines. Here is the method:
(§1) To determine if MI-181 had broad anti-cancer activity, we treated a diverse panel of cancer cell lines including cervical adenocarcinoma (HeLa), breast adenocarcinoma (MCF7), melanoma (M233), osteosarcoma (U205), acute lymphoblastic leukemia (CCRF-CEM), non-small cell lung carcinoma (NCI-H460), and breast adenocarcinoma (MCF7) with MI-181 and determined its cell viability IC50 (FIGS. 13A and 13B). […] Therefore, the efficacy of MI-181 was analyzed in a panel of melanoma cell lines with defined genetic backgrounds including BRAF^V600E and NRAS^Q61L mutations and varied sensitivities to Vemurafenib (BRAF inhibitor) and Trametinib (MEK inhibitor), which are currently used to treat BRAF^V600E melanomas^43,44 (FIG. 10c). […] As a general trend BRAF^V600E cell lines were slightly more sensitive than NRAS^Q61L cell lines and MI-181 was effective in Vemurafenib and Trametinib resistant cell lines (FIG. 10c and Table 3). Finally, we tested the ability of MI-181 to inhibit melanoma colony formation using the M233 and M308 cell lines (both resistant to Vemurafenib). Indeed, MI-181 was a potent inhibitor of colony formation (percentage colony formation for 10 nM MI-181=0.2±0.1 and 0.8±0.7; for 10 nM colchicine=0.1±0.06 and 1.5±0.5; and for 10 nM Vemurafenib=94±7 and 102±5) (FIG. 10d). Thus, MI-181 is a potent inhibitor of melanoma cell lines. […]

The test system of a further assay is M397. The assay is described as follows: CellTiter-Glo cell viability, M397. On the procedure:
as §1

Another assay concerns M296. The assay is described as follows: CellTiter-Glo cell viability, M296. On the procedure:
as §1

Another assay relates to M243. The assay is described as follows: CellTiter-Glo cell viability, M243. On the procedure:
as §1

Regarding `Cc1cc2nc(/C=C/c3cccnc3)sc2cc1C` [MI-181], the IC50 in assay [1] was 30 to 360 nM; in the assay on M397, 18.1 nM; with M296, 36.7 nM; in the assay on M243, 26 nM.

Source of the values: patent publication US10913750B2, “Tubulin-binding compounds, compositions and uses related thereto” (The Regents of the University of California, priority 2015, dated 2021).
